Data on 3 molecules can be found in patent US20220241412A1, “COMBINATION THERAPIES USING CDK INHIBITORS” (Pfizer Inc., priority 2019, published 2022).

Holding throughout (assay type): in vivo
The test system of one assay is 4T1 tumor cells. Kind of assay: 4T1 syngeneic mouse tumor model, PF-06873600 with checkpoint antibodies (Example 7). The method, then: 4T1 cells were obtained from American Type Culture Collection (ATCC) and cultured in Roswell Park Memorial Institute (RPMI1640) supplemented with 10% fetal bovine serum (FBS). All cells were maintained in a humidified incubator at 37° C. with 5% carbon dioxide (CO2). Female C57/BL6 mice were obtained from Jackson Laboratories at 8 weeks of age. To generate the syngeneic model, 30,000 4T1 tumor cells were subcutaneously implanted into the right flank of […]. Tumor bearing mice were randomized into four treatment groups based on average tumor sizes of approximately 70 mm^3 per group. Study groups included vehicle, 30 mg/kg PF-06873600 (CDK 2/4/6 inhibitor) twice daily by oral gavage, combination of 10 mg/kg anti-PD-1 antibody (PF-06937004) with 5 mg/kg anti-OX40 antibody (PF-07201252) and with 3 mg/kg anti-4-1BB antibody (PF-07218859) all administered by IP injection, and the combination of PF-06873600, anti-PD-1 antibody, anti-OX40 antibody and anti-41-BB antibody dosed as described in the cohorts above. […]
(§1) Tumor volumes were measured three times a week. Tumor volume was calculated based on two-dimensional caliper measurement with cubic millimeter volume calculated using the formula (length×width2)×0.5. […] Statistical significance determined using the Holm-Sidak method, with alpha=0.05.

Assay [1] deals with MC38 tumor cells. Kind of assay: MC38 syngeneic mouse tumor model, PF-06873600 with checkpoint antibodies (Example 2). To be noted: for tumor growth inhibition (in words): MC38 model, day 27 post-treatment initiation; for CR % on day 27: complete response; for CR % on day 27 / TGI % on day 27: day 27, s.c. MC38 tumors in female C57/BL6 mice, doses as in Table 10; for TGI % on day 27: tumor growth inhibition. The method, then:
MC38 cells were obtained from American Type Culture Collection (ATCC) and cultured in Roswell Park Memorial Institute (RPMI1640) supplemented with 10% fetal bovine serum (FBS). All cells were maintained in a humidified incubator at 37° C. with 5% carbon dioxide (CO2). Female C57/BL6 mice were obtained from Jackson Laboratories at 8 weeks of age. To generate the syngeneic model, 0.5 million MC38 tumor cells were subcutaneously implanted into the right flank of female C57/BL6 mice. Tumor bearing mice were randomized into nine treatment groups based on average tumor sizes of approximately 70 mm^3 per group, on Day 9 post tumor cell implantation. Study groups included vehicle, 30 mg/kg PF-06873600 (CDK 2/4/6 inhibitor) twice daily by oral gavage, avelumab (anti-PD-L1 antibody, PF-06834635) administered by intraperitoneal (IP) injection, 10 mg/kg, combination of avelumab administered at 10 mg/kg with anti-OX40 antibody (PF-07201252) administered at 5 mg/kg by IP injection, combination of anti-PD-L1 antibody administered at 10 mg/kg with anti-4-1BB antibody (PF-07218859) administered at 3 mg/kg by IP injection, combination of anti-PD-L1 antibody as described above with PF-06873600 administered at 30mg/kg twice daily by oral gavage, combination of anti-PD-L1 antibody and anti-OX40 antibody as described above with PF-06873600 administered at 30 mg/kg twice daily by oral gavage, combination of anti-PD-L1 antibody with anti-4-1BB antibody as described above with PF-06873600 administered at 30mg/kg twice daily by oral gavage and combination of anti-PD-L1 antibody, anti-OX40 antibody and anti-41-BB antibody as described above with PF-06873600 administered at 30 mg/kg twice daily by oral gavage. All antibodies were administered as three doses; one every three days after the study initiation. All antibody formulations are phosphate buffered saline based while PF-06873600 was administered in a 0.5% methocel/Tween suspension.
Tumor volumes were measured three times a week. Tumor volume was calculated based on two-dimensional caliper measurement with cubic millimeter volume calculated using the formula (length×width2)×0.5. Mice were sacrificed when the tumor volumes reached 2000 mm^3, which was the survival endpoint for this study. Survival curves were plotted using GraphPad Prism 7 software. Statistical significance determined using the Holm-Sidak method, with alpha=0.05.

The test system of assay [2] is MC38 tumor cells. Kind of assay: MC38 syngeneic mouse tumor model, palbociclib with checkpoint antibodies (Example 1). The method, then:
MC38 cells were obtained from American Type Culture Collection (ATCC) and cultured in Roswell Park Memorial Institute (RPMI1640) supplemented with 10% fetal bovine serum (FBS). All cells were maintained in a humidified incubator at 37° C. with 5% carbon dioxide (CO2). Female C57/BL6 mice were obtained from Jackson Laboratories at 8 weeks of age. To generate the syngeneic model, 0.5 million MC38 tumor cells were subcutaneously implanted into the right flank of female C57/BL6 mice. Tumor bearing mice were randomized into four treatment groups based on average tumor sizes of approximately 70 mm^3 per group, on Day 9 post tumor cell implantation. […]
as §1

With `C[C@@]1(O)CCC[C@H]1n1c(=O)c(C(F)F)cc2cnc(NC3CCN(S(C)(=O)=O)CC3)nc21` [PF-06873600, 6-(difluoromethyl)-8-((1R,2R)-2-hydroxy-2-methylcyclopentyl)-2-(1-(methylsulfonyl)piperidin-4-ylamino)pyrido[2,3-d]pyrimidin-7(8H)-one], the “tumor growth inhibition (in words)” value with 4T1 tumor cells (4T1 model, day 18 post-treatment initiation) is “significantly inhibited tumor growth”. For the same molecule, the “TGI % on day 27” value with 4T1 tumor cells (tumor growth inhibition, s.c. 4T1 tumors in female C57/BL6 mice, doses as in Table 16) was 66%. Moreover, in the assay with MC38 tumor cells [1], the “tumor growth inhibition (in words)” value is listed as “did not significantly inhibit tumor growth”, the “CR % on day 27” value was 0% and the “TGI % on day 27” value is reported as −7%.

Consider `CC(=O)c1c(C)c2cnc(Nc3ccc(N4CCNCC4)cn3)nc2n(C2CCCC2)c1=O` [palbociclib, 6-acetyl-8-cyclopentyl-5-methyl-2-(5-piperazin-1-yl-pyridin-2-ylamino)-8H-pyrido[2,3-d]pyrimidin-7-one], for which the “tumor growth inhibition (in words)” value in the assay on MC38 tumor cells [2] (MC38 model, day 27 post-treatment initiation) is “did not significantly inhibit tumor growth”. For the same molecule, the “TGI % on day 27” value with MC38 tumor cells [2] (tumor growth inhibition, day 27, s.c. MC38 tumors in female C57/BL6 mice, doses as in Table 8) turned out to be 29%.

As for “PF-06834635: avelumab (anti-PD-L1 antibody, PF-06834635)”, in the assay with MC38 tumor cells [1], the “tumor growth inhibition (in words)” value is “did not significantly inhibit tumor growth”, the “CR % on day 27” value is 0% and the “TGI % on day 27” value is 9%.
